Measurements taken from paper PMC12416277, “Phytochemical alkaloids orchestrate immunometabolism against viral infections” (National Science Review, 2025).
Like-named read-outs stand apart in the source and are kept apart here.

Assays:
[1] = test system: HSV-1; experiment: microbe, parasite or virus in culture; format: cell-based, herpes simplex virus 1 (HSV-1); conditions: Human alphaherpesvirus 1, L929
[2] = test system: EMCV; experiment: microbe, parasite or virus in culture; format: cell-based, encephalomyocarditis virus (EMCV); conditions: Cardiovirus A, A549
[3] = test system: EMCV; experiment: microbe, parasite or virus in culture; format: cell-based, encephalomyocarditis virus (EMCV); conditions: Cardiovirus A, L929
[4] = test system: H1N1; experiment: Dose-response of infectivity, H1N1 in A549 cells (viral mRNA by qRT-PCR); format: cell-based; conditions: Influenza A virus, H1N1, A549
[5] = test system: H1N1; experiment: Dose-response of infectivity, H1N1 in L929 cells; format: cell-based; conditions: Influenza A virus
[6] = test system: VSV; format: cell-based, vesicular stomatitis virus (VSV)
[7] = test system: A549 cells; experiment: Transcriptome analysis (RNA-seq, GO, GSEA) of compound-treated A549 cells
[8] = test system: HSV-1; experiment: microbe, parasite or virus in culture; format: cell-based, herpes simplex virus 1 (HSV-1); conditions: Human alphaherpesvirus 1, A549
[9] = test system: VSV; format: in vivo, C57/BL6J mice; conditions: mice, VSV infection
[10] = test system: H1N1; experiment: Antiviral effect in normal/serum-free medium during H1N1 infection of A549 cells; format: cell-based, influenza virus A (H1N1); conditions: serum-free conditions
[11] = test system: H1N1; experiment: H1N1 mRNA in A549 cells pretreated with NPC1 inhibitors; format: cell-based, influenza virus A (H1N1); conditions: A549 cells pretreated before infection
[12] = test system: VSV; format: cell-based, vesicular stomatitis virus (VSV); remark: listed apart in the source
[13] = test system: VSV; format: cell-based, vesicular stomatitis virus (VSV); conditions: A549 cells pretreated before infection
[14] = target: T1, NPC1 (Homo sapiens, UniProt O15118); format: binding; conditions: […]; read-out: SPR KD
T1 sequence (O15118 23-1278): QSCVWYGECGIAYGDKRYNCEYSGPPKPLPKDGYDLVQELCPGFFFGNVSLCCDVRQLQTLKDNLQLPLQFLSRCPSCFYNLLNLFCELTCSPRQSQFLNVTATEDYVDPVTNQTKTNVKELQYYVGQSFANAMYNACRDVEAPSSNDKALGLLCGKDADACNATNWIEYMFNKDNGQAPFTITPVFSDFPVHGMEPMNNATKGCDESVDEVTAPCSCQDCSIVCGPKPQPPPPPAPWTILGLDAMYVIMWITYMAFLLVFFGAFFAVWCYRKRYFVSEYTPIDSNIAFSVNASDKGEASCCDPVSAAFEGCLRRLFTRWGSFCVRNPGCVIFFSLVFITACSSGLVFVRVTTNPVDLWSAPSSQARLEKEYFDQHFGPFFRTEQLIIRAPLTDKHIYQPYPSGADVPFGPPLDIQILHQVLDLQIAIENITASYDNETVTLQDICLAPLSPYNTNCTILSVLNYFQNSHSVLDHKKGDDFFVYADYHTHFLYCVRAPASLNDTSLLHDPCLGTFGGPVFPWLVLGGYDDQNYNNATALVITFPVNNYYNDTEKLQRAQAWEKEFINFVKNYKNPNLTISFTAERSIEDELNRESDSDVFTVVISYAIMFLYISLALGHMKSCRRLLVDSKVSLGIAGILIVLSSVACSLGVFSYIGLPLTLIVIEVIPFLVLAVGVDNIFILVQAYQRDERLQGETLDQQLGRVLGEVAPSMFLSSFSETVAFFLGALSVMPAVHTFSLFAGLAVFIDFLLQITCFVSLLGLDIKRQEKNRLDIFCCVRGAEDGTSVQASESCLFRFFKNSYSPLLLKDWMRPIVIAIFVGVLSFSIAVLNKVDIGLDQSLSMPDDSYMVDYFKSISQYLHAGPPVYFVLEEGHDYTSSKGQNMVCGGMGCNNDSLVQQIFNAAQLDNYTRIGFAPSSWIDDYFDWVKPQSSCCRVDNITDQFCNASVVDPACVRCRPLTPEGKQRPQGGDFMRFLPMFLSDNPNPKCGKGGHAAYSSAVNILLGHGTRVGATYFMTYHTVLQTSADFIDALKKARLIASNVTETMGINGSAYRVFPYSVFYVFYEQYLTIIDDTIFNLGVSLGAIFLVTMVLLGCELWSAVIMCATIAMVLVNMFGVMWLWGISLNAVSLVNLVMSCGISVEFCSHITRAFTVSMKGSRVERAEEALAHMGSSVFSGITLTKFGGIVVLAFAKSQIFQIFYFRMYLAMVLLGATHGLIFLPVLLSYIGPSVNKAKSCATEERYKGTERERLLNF

Work on `COc1cc2c3cc1Oc1c(OC)c(OC)cc4c1[C@@H](Cc1ccc(O)c(c1)Oc1ccc(cc1)C[C@@H]3N(C)CC2)N(C)CC4` [Bbm, berbamine] yielded an EC50 [1] of 360 nM, an EC50 [2] of 107 nM and an EC50 [3] of 1500 nM. The EC50 [4] was 606 nM, the EC50 [5] was 2650 nM and the “VSV replication (VSV-G protein, immunoblotting)” value [6] was “inhibited”. For the same molecule, the “GSEA NES, Response to virus” value ([7]; A549 cells, 10 µM, 24 h) was 1.34, the “GSEA NES, Sterol metabolic process” value ([7]; A549 cells, 10 µM, 24 h) was 2.29 and the EC50 [8] was 3270 nM.
Molecule `COc1ccc2cc1Oc1ccc(cc1)C[C@H]1c3c(cc4c(c3Oc3cc5c(cc3OC)CCN(C)[C@@H]5C2)OCO4)CCN1C` [Cep, cepharanthine] has an EC50 [1] of 569 nM, an EC50 [2] of 2090 nM and an EC50 [3] of 998 nM. For the same molecule, the EC50 [4] was 110 nM, the EC50 [5] was 3840 nM and the “VSV replication (VSV-G protein, immunoblotting)” value [6] was “inhibited”. The “GSEA NES, Innate immune response” value ([7]; A549 cells, 10 µM, 24 h) was 1.25, the “GSEA NES, Sterol metabolic process” value ([7]; A549 cells, 10 µM, 24 h) was 2.19 and the EC50 [8] was 3160 nM.
In the case of `Cc1ccc2c(=O)c3cccc(CC(=O)O)c3oc2c1C` [DMXAA], the “IL-6 level in serum” value [9] is reported as “markedly decreased” and the “TNF-α level in serum” value [9] is reported as “markedly decreased”.
`COc1ccc2cc1Oc1ccc(cc1)C[C@H]1c3cc(c(OC)cc3CCN1C)Oc1c(O)c(OC)cc3c1[C@H](C2)N(C)CC3` [Fan, fangchinoline] showed an EC50 [1] of 2320 nM, an EC50 [2] of 821 nM and an EC50 [3] of 1360 nM. The EC50 [4] was 794 nM, the EC50 [5] was 537 nM and the “VSV replication (VSV-G protein, immunoblotting)” value [6] was “inhibited”. The “GSEA NES, Response to type I interferon” value ([7]; A549 cells, 10 µM, 24 h) was 2.27, the “GSEA NES, Sterol metabolic process” value ([7]; A549 cells, 10 µM, 24 h) was 2.04 and the “expression of antiviral immune-related genes” value ([7]; WT A549 cells, compared among Tet, Fan, Cep, Bbm) was “higher expression”. For the same molecule, the EC50 [8] was 2550 nM.
With `CCN(CC)CCO[C@H]1CC[C@@]2(C)C(=CC[C@@H]3[C@@H]2CC[C@]2(C)C(=O)CC[C@@H]32)C1` [U18666A] the “antiviral effect on H1N1 entry” value [10] was “diminished”, the H1N1 replication [11] was “effectively blocked” and the “antiviral effect on VSV entry” value ([12]; MβCD pretreatment (cholesterol depleted)) was “abolished”. For the same molecule, the “antiviral effect on VSV entry” value ([12]; cholesterol supplementation using MβCD-cholesterol) was “restored inhibition” and the VSV replication [13] was “effectively blocked”.
In the case of `CN(C)CCCN1c2ccccc2CCc2ccccc21` [imipramine], the H1N1 replication [11] is reported as “effectively blocked” and the VSV replication [13] is reported as “effectively blocked”.
With `CCC(C)n1ncn(-c2ccc(N3CCN(c4ccc(OCC5COC(Cn6cncn6)(c6ccc(Cl)cc6Cl)O5)cc4)CC3)cc2)c1=O` (stereo not drawn) [itraconazole] the Kd [14] was 8760 nM, the H1N1 replication [11] was “effectively blocked” and the VSV replication [13] was “effectively blocked”.
`CC[C@@H]([C@H](C)O)n1ncn(-c2ccc(N3CCN(c4ccc(OC[C@@H]5CO[C@@](Cn6cncn6)(c6ccc(F)cc6F)C5)cc4)CC3)cc2)c1=O` [posaconazole] was tested, and the H1N1 replication [11] was “effectively blocked” and the VSV replication [13] was “effectively blocked”.
